Test results as given in PubChem BioAssay AID1918931 (Molecular Pharmacology Branch, DTP, NCI, 2023).

Tested on: 138582-337-R-J1-PDC complex spheroid viability
Experiment: Anticancer human tumor 138582-337-R-J1-PDC patient-derived Merkel cell tumor cell line growth inhibition
Conditions: for IC50: curve of first compound; for viability, T/C: stronger effect = lower value
How it was run: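 Drug combinations with the LSD1 inhibitor iadademstat tested on tumor cells co-cultured as spheroids with endothelial cells and mesenchymal stem cells. Concentrations descended in half-log increments from clinical Cmax or 10 microM.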

[1] = second compound 0.1 µM, first compound 0.0316 µM
[2] = second compound 0.1 µM, first compound 0.1 µM
[3] = second compound 0.1 µM, first compound 0.316 µM
[4] = second compound 0.1 µM, first compound 1 µM
[5] = second compound 0.1 µM, first compound 3.16 µM
[6] = second compound 0.1 µM, first compound 10 µM
[7] = second compound 0.316 µM, first compound 0.0316 µM
[8] = second compound 0.316 µM, first compound 0.1 µM
[9] = second compound 0.316 µM, first compound 0.316 µM
[10] = second compound 0.316 µM, first compound 1 µM
[11] = second compound 0.316 µM, first compound 3.16 µM
[12] = second compound 0.316 µM, first compound 10 µM
[13] = second compound 1 µM, first compound 0.0316 µM
[14] = second compound 1 µM, first compound 0.1 µM
[15] = second compound 1 µM, first compound 0.316 µM
[16] = second compound 1 µM, first compound 1 µM
[17] = second compound 1 µM, first compound 3.16 µM
[18] = second compound 1 µM, first compound 10 µM
[19] = second compound 3.16 µM, first compound 0.0316 µM
[20] = second compound 3.16 µM, first compound 0.1 µM
[21] = second compound 3.16 µM, first compound 0.316 µM
[22] = second compound 3.16 µM, first compound 1 µM
[23] = second compound 3.16 µM, first compound 3.16 µM
[24] = second compound 3.16 µM, first compound 10 µM
[25] = second compound 10 µM, first compound 0.0316 µM
[26] = second compound 10 µM, first compound 0.1 µM
[27] = second compound 10 µM, first compound 0.316 µM
[28] = second compound 10 µM, first compound 1 µM
[29] = second compound 10 µM, first compound 3.16 µM
[30] = second compound 10 µM, first compound 10 µM
[31] = second compound 0.1 µM, first compound 0.00316 µM
[32] = second compound 0.1 µM, first compound 0.01 µM
[33] = second compound 0.316 µM, first compound 0.00316 µM
[34] = second compound 0.316 µM, first compound 0.01 µM
[35] = second compound 1 µM, first compound 0.00316 µM
[36] = second compound 1 µM, first compound 0.01 µM
[37] = second compound 3.16 µM, first compound 0.00316 µM
[38] = second compound 3.16 µM, first compound 0.01 µM
[39] = second compound 10 µM, first compound 0.00316 µM
[40] = second compound 10 µM, first compound 0.01 µM
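Also: spheroids exposed to agents for 7 days.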
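For viability, T/C in this document: 100% = DMSO vehicle control viability.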

SMILES	IC50 (second compound 0.1 µM) [µM]	IC50 (second compound 0.316 µM) [µM]	IC50 (second compound 1 µM) [µM]	IC50 (second compound 3.16 µM) [µM]	IC50 (second compound 10 µM) [µM]	viability, T/C [1] [%]	viability, T/C [2] [%]	viability, T/C [3] [%]	viability, T/C [4] [%]	viability, T/C [7] [%]	viability, T/C [8] [%]	viability, T/C [9] [%]	viability, T/C [10] [%]	viability, T/C [13] [%]	viability, T/C [14] [%]	viability, T/C [15] [%]	viability, T/C [16] [%]	viability, T/C [19] [%]	viability, T/C [20] [%]	viability, T/C [21] [%]	further results
CC(C)c1c(-c2ccccc2)nc2c(C#N)c[nH]n2c1=O + NC1CC1c1ccc(-c2cccc(O)c2)cc1	6.25	4.4	4.91	2.53	> 10	69.5	76.3	66.6	62.1	69.1	73.5	71.2	67.6	76.1	68.8	82	70.2	85.7	78.6	68.6	viability, T/C [5]: 54.4%; viability, T/C [6]: 46.9%; viability, T/C [11]: 54.7%; viability, T/C [12]: 38.5%; viability, T/C [17]: 57.5%; viability, T/C [18]: 38.2%; viability, T/C [22]: 55.9%; viability, T/C [23]: 50.1%; viability, T/C [24]: 38.5%; viability, T/C [25]: 85.7%; viability, T/C [26]: 90.9%; viability, T/C [27]: 84.9%; viability, T/C [28]: 73.9%; viability, T/C [29]: 61.1%; viability, T/C [30]: 51.6%
CC1COCCN1c1cc(-c2ccnn2C)c2ccnc(-c3ccn[nH]3)c2n1 (stereo not given) + NC1CC1c1ccc(-c2cccc(O)c2)cc1	0.0345	0.0257	0.0384	0.0438	0.0677	50.3	34.1	26.3	28	48	42.9	27.1	27.3	54.4	28.2	30.1	25.8	59.7	33.5	27.6	viability, T/C [31]: 62.1%; viability, T/C [32]: 65%; viability, T/C [33]: 68%; viability, T/C [34]: 57.4%; viability, T/C [35]: 77.1%; viability, T/C [36]: 74.7%; viability, T/C [37]: 80.4%; viability, T/C [38]: 65.8%; viability, T/C [22]: 26.4%; viability, T/C [39]: 75.6%; viability, T/C [40]: 85%; viability, T/C [25]: 57.6%; viability, T/C [26]: 46.2%; viability, T/C [27]: 30.5%; viability, T/C [28]: 26.5%
COc1ccc([C@@H](O)c2cc(-c3ncnc4cc(N5CCOCC5)ccc34)c(F)cc2Cl)nn1 + NC1CC1c1ccc(-c2cccc(O)c2)cc1	0.62	2.69	1.98	2.2	2.49	73.2	60.4	57	45.5	67	72.2	66.1	58.3	77.2	73.5	61	61.6	68.3	79.5	65.4	viability, T/C [5]: 38.2%; viability, T/C [6]: 24.6%; viability, T/C [11]: 49.2%; viability, T/C [12]: 28.5%; viability, T/C [17]: 44.7%; viability, T/C [18]: 25.1%; viability, T/C [22]: 58.8%; viability, T/C [23]: 46.4%; viability, T/C [24]: 26%; viability, T/C [25]: 99.8%; viability, T/C [26]: 90.6%; viability, T/C [27]: 77%; viability, T/C [28]: 63.9%; viability, T/C [29]: 48.1%; viability, T/C [30]: 25.3%
O=C(C=Cn1cnc(-c2cc(C(F)(F)F)cc(C(F)(F)F)c2)n1)NNc1cnccn1 + NC1CC1c1ccc(-c2cccc(O)c2)cc1	0.0115	0.0104	0.00594	0.00594	0.0158	27.8	17.4	16.3	15.7	28.1	16.2	17.3	21	33.8	21.1	18.6	23.8	29.3	22.1	22.6	viability, T/C [31]: 60.7%; viability, T/C [32]: 53%; viability, T/C [33]: 56.7%; viability, T/C [34]: 50.4%; viability, T/C [35]: 55.2%; viability, T/C [36]: 44.8%; viability, T/C [37]: 55.2%; viability, T/C [38]: 46%; viability, T/C [22]: 17.3%; viability, T/C [39]: 55.4%; viability, T/C [40]: 53.1%; viability, T/C [25]: 44.6%; viability, T/C [26]: 35.1%; viability, T/C [27]: 24.9%; viability, T/C [28]: 32.2%
